Converted amounts (≈) assume the structure as drawn.
Experiments:
Pseudomonas aeruginosa = experiment: Antibacterial activity against Pseudomonas aeruginosa ATCC 15442 after 15 days by turbidometric method; format: functional; conditions: ATCC 15442, 360 h
Klebsiella pneumoniae = experiment: Antibacterial activity against Klebsiella pneumoniae ATCC 700603 after 15 days by turbidometric method; format: functional; conditions: Klebsiella pneumoniae, 700603, 360 h
Acinetobacter baumannii = experiment: Antibacterial activity against Acinetobacter baumannii ATCC 19606 after 15 days by turbidometric method; format: functional; conditions: ATCC 19606 = CIP 70.34 = JCM 6841
Staphylococcus aureus = experiment: Antibacterial activity against Staphylococcus aureus ATCC 33591 after 15 days by turbidometric method; format: functional; conditions: ATCC 33591, 360 h
Escherichia coli = experiment: Antibacterial activity against Escherichia coli ATCC 25922 after 15 days by turbidometric method; format: functional; conditions: ATCC 25922, 360 h
Enterococcus faecium = experiment: Antibacterial activity against Enterococcus faecium ATCC 51559 after 15 days by turbidometric method; format: functional; conditions: ATCC 51559, 360 h
[1] = Tmax in BALB/c mouse at 30 mg/kg, po; format: ADME, organism-based; conditions: in vivo
[2] = Metabolic stability in human liver microsomes assessed as compound remaining at 1 uM after 120 mins in presence of G-6-P, G-6-PDH, MgCl2 and NADP+ by LC-MS/MS analysis (reference value: 100%)
[3] = AUClast in BALB/c mouse at 30 mg/kg, po; format: ADME, organism-based; parameters: dose 30 mg/kg, route oral, time 0 - last; conditions: in vivo
HepG2 = experiment: Cytotoxicity against human HepG2 cells after 24 hrs by MTT assay; format: cell-based; conditions: HepG2, 24 h
[4] = Extrapolated AUC in BALB/c mouse at 30 mg/kg, po; format: ADME, organism-based; conditions: in vivo
[5] = test system: Mycobacterium tuberculosis; experiment: Bacteriostatic activity against Mycobacterium tuberculosis H37Rv assessed as colony forming units at 0.002 to 64 ug/ml measured day 3 post dose by time kill assay (reference value: 0 log10CFU/ml); format: functional
[6] = Metabolic stability in human liver microsomes assessed as compound remaining at 1 uM after 15 mins in presence of G-6-P, G-6-PDH, MgCl2 and NADP+ by LC-MS/MS analysis (reference value: 100%)
[7] = Metabolic stability in human liver microsomes assessed as compound remaining at 1 uM after 30 mins in presence of G-6-P, G-6-PDH, MgCl2 and NADP+ by LC-MS/MS analysis (reference value: 100%)
[8] = Cmax in BALB/c mouse at 30 mg/kg, po; format: ADME, organism-based; parameters: dose 30 mg/kg, route oral; conditions: in vivo
[9] = test system: Mycobacterium tuberculosis; experiment: Bacteriostatic activity against Mycobacterium tuberculosis H37Rv assessed as colony forming units at 0.002 to 64 ug/ml measured day 14 post dose by time kill assay (reference value: 0 log10CFU/ml); format: functional
[10] = Half life in BALB/c mouse at 30 mg/kg, po; format: ADME, organism-based; conditions: in vivo
[11] = test system: Mycobacterium tuberculosis; experiment: Bacteriostatic activity against Mycobacterium tuberculosis H37Rv assessed as colony forming units at 0.002 to 64 ug/ml measured day 7 post dose by time kill assay (reference value: 0 log10CFU/ml); format: functional
[12] = MRTlast in BALB/c mouse at 30 mg/kg, po; format: ADME, organism-based; conditions: in vivo
[13] = AUC (infinity) in BALB/c mouse at 30 mg/kg, po; format: ADME, organism-based; parameters: dose 30 mg/kg, time infinity, route oral; conditions: in vivo
[14] = test system: Mycobacterium tuberculosis; experiment: Antitubercular activity against Mycobacterium tuberculosis H37Rv after 15 days by turbidometric method; format: functional; conditions: 360 h
[15] = test system: Mycobacterium tuberculosis; experiment: Bacteriostatic activity against Mycobacterium tuberculosis H37Rv assessed as colony forming units at 0.002 to 64 ug/ml measured day 21 post dose by time kill assay (reference value: 0 log10CFU/ml); format: functional
[16] = Metabolic stability in human liver microsomes assessed as compound remaining at 1 uM after 120 mins by LC-MS/MS analysis (reference value: 100%)
[17] = Metabolic stability in human liver microsomes assessed as compound remaining at 1 uM after 60 mins in presence of G-6-P, G-6-PDH, MgCl2 and NADP+ by LC-MS/MS analysis (reference value: 100%)

O=C(O)c1cn(C2CC2)c2cc(N3CCNCC3)c(F)cc2c1=O [CIPROFLOXACIN]
MIC (Pseudomonas aeruginosa): < 1 µg/mL | MIC (Klebsiella pneumoniae): < 1 µg/mL | MIC (Acinetobacter baumannii): < 1 µg/mL | MIC (Staphylococcus aureus): < 1 µg/mL | MIC (Escherichia coli): 0.007 µg/mL (≈ 0.0211 µM) | MIC (Enterococcus faecium): 8 µg/mL (≈ 24.1 µM)

CC(C)c1ccc(-c2nc(CN3CCN(c4ccnc5cc(Cl)ccc45)CC3)no2)cc1
MIC (Pseudomonas aeruginosa): > 32 µg/mL | Tmax [1]: 1 h | remaining at 2 h, 1 µM [2]: 39.7% | MIC (Klebsiella pneumoniae): > 32 µg/mL | MIC (Acinetobacter baumannii): > 32 µg/mL | AUC(0-t) [3]: 5270 ng·h/mL | IC50 (HepG2): > 100 µM | %AUCextra [4]: 1.17% | Emax [5]: 0.2 log10CFU/ml | remaining at 0.25 h, 1 µM [6]: 82% | remaining at 0.5 h, 1 µM [7]: 67.2% | Cmax [8]: 2500 ng/mL | Emax [9]: 0.9 log10CFU/ml | half-life [10]: 1.63 h | Emax [11]: 1.1 log10CFU/ml | MRT last [12]: 1.5 h | AUC(0-inf) [13]: 5330 ng·h/mL | MIC [14]: 0.5 µg/mL (≈ 1.12 µM) | Emax [15]: 0.9 log10CFU/ml | remaining at 2 h, 1 µM [16]: 89.2% | remaining at 1 h, 1 µM [17]: 55.3% | MIC (Staphylococcus aureus): > 32 µg/mL | MIC (Escherichia coli): > 32 µg/mL | MIC (Enterococcus faecium): > 32 µg/mL

Cc1cccc(-c2nc(CN3CCN(c4ccnc5cc(Cl)ccc45)CC3)no2)c1C
MIC [14]: 64 µg/mL (≈ 147 µM)

c1cc(-c2ccc3c(N4CCN(Cc5noc(C6CCCC6)n5)CC4)ccnc3c2)ccn1
MIC [14]: 2 µg/mL (≈ 4.54 µM)

Fc1cc(F)cc(-c2nc(CN3CCN(c4ccnc5cc(Cl)ccc45)CC3)no2)c1
MIC [14]: > 128 µg/mL

Cc1cccc(-c2nc(CN3CCN(c4ccnc5cc(-c6cccnc6)ccc45)CC3)no2)c1C
MIC (Pseudomonas aeruginosa): > 32 µg/mL | Tmax [1]: 0.5 h | remaining at 2 h, 1 µM [2]: 18.1% | MIC (Klebsiella pneumoniae): > 32 µg/mL | MIC (Acinetobacter baumannii): > 32 µg/mL | AUC(0-t) [3]: 8290 ng·h/mL | IC50 (HepG2): > 100 µM | %AUCextra [4]: 0.22% | remaining at 0.25 h, 1 µM [6]: 65.1% | remaining at 0.5 h, 1 µM [7]: 47.3% | Cmax [8]: 6410 ng/mL | half-life [10]: 0.94 h | MRT last [12]: 1.34 h | AUC(0-inf) [13]: 8310 ng·h/mL | MIC [14]: 0.25 µg/mL (≈ 0.525 µM) | remaining at 2 h, 1 µM [16]: 78% | remaining at 1 h, 1 µM [17]: 31.7% | MIC (Staphylococcus aureus): > 32 µg/mL | MIC (Escherichia coli): > 32 µg/mL | MIC (Enterococcus faecium): > 32 µg/mL

CC(C)c1ccc(-c2nc(CN3CCN(c4ccnc5cc(-c6cc(F)cc(F)c6)ccc45)CC3)no2)cc1
MIC [14]: 32 µg/mL (≈ 60.9 µM)

Fc1cc(F)cc(-c2ccc3c(N4CCN(Cc5noc(-c6cc(F)cc(F)c6)n5)CC4)ccnc3c2)c1
MIC [14]: 64 µg/mL (≈ 123 µM)

Clc1ccc2c(N3CCN(Cc4noc(C5CCCC5)n4)CC3)ccnc2c1
MIC [14]: 32 µg/mL (≈ 80.4 µM)

CN[C@H](CC(C)C)C(=O)N[C@H]1C(=O)N[C@@H](CC(N)=O)C(=O)N[C@H]2C(=O)N[C@H]3C(=O)N[C@H](C(=O)N[C@H](C(=O)O)c4cc(O)cc(O)c4-c4cc3ccc4O)[C@H](O)c3ccc(c(Cl)c3)Oc3cc2cc(c3O[C@@H]2O[C@H](CO)[C@@H](O)[C@H](O)[C@H]2O[C@H]2C[C@](C)(N)[C@H](O)[C@H](C)O2)Oc2ccc(cc2Cl)[C@H]1O [VANCOMYCIN]
MIC (Pseudomonas aeruginosa): 512 µg/mL (≈ 353 µM) | MIC (Klebsiella pneumoniae): 512 µg/mL (≈ 353 µM) | MIC (Acinetobacter baumannii): 256 µg/mL (≈ 177 µM) | MIC (Escherichia coli): > 512 µg/mL | MIC (Enterococcus faecium): < 1 µg/mL

CO[C@H]1/C=C/O[C@@]2(C)Oc3c(C)c(O)c4c(O)c(c(/C=N/N5CCN(C)CC5)c(O)c4c3C2=O)NC(=O)/C(C)=C\C=C\[C@H](C)[C@H](O)[C@@H](C)[C@@H](O)[C@@H](C)[C@H](OC(C)=O)[C@@H]1C [RIFAMPIN]
Emax [5]: 4.2 log10CFU/ml | Emax [9]: 6.2 log10CFU/ml | Emax [11]: 6.2 log10CFU/ml | MIC [14]: 0.03 µg/mL (≈ 0.0365 µM) | Emax [15]: 6.3 log10CFU/ml

COc1cc(OC)cc(-c2nc(CN3CCN(c4ccnc5cc(-c6cc(F)cc(F)c6)ccc45)CC3)no2)c1
MIC [14]: 256 µg/mL (≈ 471 µM)

NNC(=O)c1ccncc1 [ISONIAZID]
MIC [14]: 0.015 µg/mL (≈ 0.109 µM)

c1cncc(-c2ccc3c(N4CCN(Cc5noc(C6CCCC6)n5)CC4)ccnc3c2)c1
MIC (Pseudomonas aeruginosa): 512 µg/mL (≈ 1160 µM) | Tmax [1]: 0.5 h | remaining at 2 h, 1 µM [2]: 21.9% | MIC (Klebsiella pneumoniae): 256 µg/mL (≈ 581 µM) | MIC (Acinetobacter baumannii): 512 µg/mL (≈ 1160 µM) | AUC(0-t) [3]: 20000 ng·h/mL | IC50 (HepG2): > 50 µM | %AUCextra [4]: 0.71% | remaining at 0.25 h, 1 µM [6]: 60.8% | remaining at 0.5 h, 1 µM [7]: 54.8% | Cmax [8]: 9600 ng/mL | half-life [10]: 0.75 h | MRT last [12]: 1.31 h | AUC(0-inf) [13]: 20200 ng·h/mL | MIC [14]: 0.25 µg/mL (≈ 0.567 µM) | remaining at 2 h, 1 µM [16]: 97.8% | remaining at 1 h, 1 µM [17]: 38% | MIC (Staphylococcus aureus): 512 µg/mL (≈ 1160 µM) | MIC (Escherichia coli): 256 µg/mL (≈ 581 µM) | MIC (Enterococcus faecium): 64 µg/mL (≈ 145 µM)

Cc1cccc(-c2nc(CN3CCN(c4ccnc5cc(-c6cc(F)cc(F)c6)ccc45)CC3)no2)c1C
MIC [14]: 32 µg/mL (≈ 62.6 µM)

N#Cc1cccc(-c2nc(CN3CCN(c4ccnc5cc(Cl)ccc45)CC3)no2)c1
MIC [14]: 64 µg/mL (≈ 149 µM)

Fc1cc(F)cc(-c2nc(CN3CCN(c4ccnc5cc(-c6ccncc6)ccc45)CC3)no2)c1
MIC [14]: 16 µg/mL (≈ 33 µM)

CC(C)c1ccc(-c2nc(CN3CCN(c4ccnc5cc(-c6cccnc6)ccc45)CC3)no2)cc1
MIC (Pseudomonas aeruginosa): > 32 µg/mL | Tmax [1]: 0.5 h | remaining at 2 h, 1 µM [2]: 23% | MIC (Klebsiella pneumoniae): > 32 µg/mL | MIC (Acinetobacter baumannii): > 32 µg/mL | AUC(0-t) [3]: 11900 ng·h/mL | IC50 (HepG2): > 100 µM | %AUCextra [4]: 0.6% | remaining at 0.25 h, 1 µM [6]: 74.1% | remaining at 0.5 h, 1 µM [7]: 56.8% | Cmax [8]: 7440 ng/mL | half-life [10]: 1.05 h | MRT last [12]: 1.38 h | AUC(0-inf) [13]: 11900 ng·h/mL | MIC [14]: 0.25 µg/mL (≈ 0.51 µM) | remaining at 2 h, 1 µM [16]: 76.5% | remaining at 1 h, 1 µM [17]: 40.1% | MIC (Staphylococcus aureus): > 32 µg/mL | MIC (Escherichia coli): > 32 µg/mL | MIC (Enterococcus faecium): > 32 µg/mL

COc1ccc(CCN2CCC(Nc3nc4ccccc4n3Cc3ccc(F)cc3)CC2)cc1 [ASTEMIZOLE]
IC50 (HepG2): 7.97 µM

CC(C)c1ccc(-c2nc(CN3CCN(c4ccnc5cc(-c6ccncc6)ccc45)CC3)no2)cc1
MIC [14]: 2 µg/mL (≈ 4.08 µM)

Cc1cccc(-c2nc(CN3CCN(c4ccnc5cc(-c6ccncc6)ccc45)CC3)no2)c1C
MIC [14]: 2 µg/mL (≈ 4.2 µM)

Fc1cc(F)cc(-c2ccc3c(N4CCN(Cc5noc(C6CCCC6)n5)CC4)ccnc3c2)c1
MIC [14]: 128 µg/mL (≈ 269 µM)

N#Cc1cccc(-c2nc(CN3CCN(c4ccnc5cc(-c6ccncc6)ccc45)CC3)no2)c1
MIC [14]: 32 µg/mL (≈ 67.6 µM)

COc1cc(OC)cc(-c2nc(CN3CCN(c4ccnc5cc(-c6ccncc6)ccc45)CC3)no2)c1
MIC [14]: > 128 µg/mL

N#Cc1cccc(-c2nc(CN3CCN(c4ccnc5cc(-c6cc(F)cc(F)c6)ccc45)CC3)no2)c1
MIC [14]: > 256 µg/mL

COc1cc(OC)cc(-c2nc(CN3CCN(c4ccnc5cc(Cl)ccc45)CC3)no2)c1
MIC [14]: 32 µg/mL (≈ 68.7 µM)

From ChEMBL document CHEMBL4308875, “Synthesis, antituberculosis studies and biological evaluation of new quinoline derivatives carrying 1,2,4-oxadiazole moiety” (Bioorg Med Chem Lett, 2019)
